Experimental data taken from patent publication US20100311756A1, “METHODS FOR DELAYING THE PROGRESSION OF AT LEAST ONE OF CARDIAC HYPERTROPHY, CARDIAC REMODELING OR LEFT VENTRICULAR FUNCTION OR THE ONSET OF HEART FAILURE IN SUBJECTS IN NEED OF TREATMENT THEREOF” (TAKEDA PHARMACEUTICALS NORTH AMERICA, INC., priority 2009, published 2010).

Assay: Serum uric acid level in rabbits (unpublished observations, 1998)
Type: in vivo
Conditions: oral dose of 10 mg/kg
Source text: The procedures used in this study were reviewed and approved by the Institutional Animal Care and Use Committee (IACUC) of QTest Labs for compliance with regulations and current accepted practices. All applicable sections of the Final Rules of the Animal Welfare Act regulations (Section 9 CFR) and the Public Health Service Policy on Humane Care and Use of Laboratory Animals (OPRR, NIH, 1986) were followed. At the end of the study, all animals were humanely euthanized in accordance with accepted guidelines of the American Veterinary Medical Association (See, American Veterinary Medicine Association (AVMA), 2000 Report of the AVMA Panel on Euthanasia, The Journal of the American Veterinary Medical Association, 218(5):669-696 (2001)). • Drugs Febuxostat and allopurinol (Sigma-Aldrich, St. Louis, Mo., USA) were each formulated as a suspension in 0.5% methylcellulose (Sigma-Aldrich, St. Louis, Mo.) as the vehicle. The febuxostat oral dose of 10 mg/kg was estimated to provide a similar plasma level of febuxostat as the clinically efficacious dose (See, Khosravan et al., Clinical Pharmacokinetics, 45(8):821-841 (2006)). […] Allopurinol was given orally at 60 mg/kg. […] The rabbits were anesthetized with an intramuscular injection of ketamine (35 mg/kg)/xylazine (5 mg/kg) and pre-surgery enrofloxacin (12 mg/kg). […]

## Cc1nc(-c2ccc(OCC(C)C)c(C#N)c2)sc1C(=O)O [febuxostat, 2-[3-cyano-4-(2-methylpropoxy)phenyl]-4-methylthiazole-5-carboxylic acid]
  Serum uric acid level: significant reduction
